# Assay results published in ChEMBL document CHEMBL5331076, “Streptogramin A derivatives as mitochondrial translation inhibitors to suppress glioblastoma stem cell growth” (Eur J Med Chem, 2023).
# Activity calls are given as the source filed them. The rule behind the calls is not given here. *1 amine or outer side, *2 acyl side, *3 side chain or, on linkers, in order; H or OH if unused. Where a SMILES comes first, the peptide text is derived from it. Bridges are numbered along the chain shown (N, C = ends). [ ]: non-standard residue; d: D form. The star is where a group is joined. X1 = O=C1C[C@@H](C(=O)[*:2])N([*:1])C[C@H]1CS[C@@H]1CN2CCC1CC2; NMePhe(4-NMe2) = CN[C@@H](Cc1ccc(N(C)C)cc1)C(=O)O; Picolinoyl(3-OH) = O=C(c1ncccc1O)*; Phg = N[C@H](C(=O)O)c1ccccc1; dAbu = CC[C@@H](N)C(=O)O
# Experiments:
# [1] = system: COMI; experiment: Potency index, ratio of temozolomide GI50 to test compound GI50 for human COMI cells in the presence of dalfopristin; format: functional
# [2] = system: VIPI; experiment: Growth inhibition of human VIPI cells incubated for 48 hrs by Hoechst 33342/PI staining based analysis; format: functional
# [3] = system: COMI; experiment: Inhibition of mitochondrial translation in human COMI cells assessed as decrease in COX1 expression level at 0.38 to 2 uM incubated for 24 hrs in the presence of emetine by [35S]-methionine labelling based SDS-PAGE analysis; format: functional, cell-based; conditions: dose 0.38-2 µM
# [4] = system: COMI; experiment: Inhibition of mitochondrial translation in human COMI cells assessed as decrease in COX2 expression level at 0.5 to 5 uM incubated for 48 hrs in the presence of dalfopristin by immunoblotting analysis; format: functional, cell-based; conditions: dose 0.5-5 µM
# [5] = Potency index, ratio of temozolomide GI50 to test compound GI50 for human VIPI cells in the presence of dalfopristin; format: functional
# [6] = system: COMI; experiment: Growth inhibition of human COMI cells incubated for 48 hrs by Hoechst 33342/PI staining based analysis; format: functional
# [7] = system: COMI; experiment: Growth inhibition of human COMI cells in the presence of dalfopristin; format: functional
# [8] = system: COMI; experiment: Inhibition of mitochondrial translation in human COMI cells assessed as decrease in ND3 expression level at 0.5 to 5 uM incubated for 48 hrs in the presence of dalfopristin by immunoblotting analysis; format: functional, cell-based; conditions: dose 0.5-5 µM
# [9] = system: COMI; experiment: Inhibition of mitochondrial translation in human COMI cells assessed as decrease in COX1 expression level at 0.5 to 5 uM incubated for 48 hrs by immunoblotting analysis; format: functional, cell-based; conditions: dose 0.5-5 µM
# [10] = system: COMI; experiment: Inhibition of mitochondrial translation in human COMI cells assessed as decrease in ND3 expression level at 0.5 to 5 uM incubated for 48 hrs by immunoblotting analysis; format: functional, cell-based; conditions: dose 0.5-5 µM
# [11] = system: COMI; experiment: Inhibition of mitochondrial translation in human COMI cells assessed as decrease in COX2 expression level at 0.5 uM incubated for 24 hrs in the presence of dalfopristin and emetine by [35S]-methionine labelling based SDS-PAGE analysis; format: functional, cell-based
# [12] = system: COMI; experiment: Inhibition of mitochondrial translation in human COMI cells assessed as decrease in ND3 expression level at 0.38 to 2 uM incubated for 24 hrs in the presence of emetine by [35S]-methionine labelling based SDS-PAGE analysis; format: functional, cell-based; conditions: dose 0.38-2 µM
# [13] = system: COMI; experiment: Inhibition of mitochondrial translation in human COMI cells assessed as decrease in ND3 expression level at 0.5 uM incubated for 24 hrs in the presence of dalfopristin and emetine by [35S]-methionine labelling based SDS-PAGE analysis; format: functional, cell-based
# [14] = system: COMI; experiment: Inhibition of mitochondrial translation in human COMI cells assessed as increase in COX4 expression level at 0.5 to 5 uM incubated for 48 hrs in the presence of dalfopristin by immunoblotting analysis; format: functional, cell-based; conditions: dose 0.5-5 µM
# [15] = system: VIPI; experiment: Growth inhibition of human VIPI cells in the presence of dalfopristin; format: functional
# [16] = system: COMI; experiment: Inhibition of mitochondrial translation in human COMI cells assessed as decrease in COX2 expression level at 0.38 to 2 uM incubated for 24 hrs in the presence of emetine by [35S]-methionine labelling based SDS-PAGE analysis; format: functional, cell-based; conditions: dose 0.38-2 µM
# [17] = system: COMI; experiment: Inhibition of mitochondrial translation in human COMI cells assessed as decrease in COX1 expression level at 0.5 uM incubated for 24 hrs in the presence of dalfopristin and emetine by [35S]-methionine labelling based SDS-PAGE analysis; format: functional, cell-based
# [18] = system: COMI; experiment: Inhibition of mitochondrial translation in human COMI cells assessed as increase in COX4 expression level at 0.5 to 5 uM incubated for 48 hrs by immunoblotting analysis; format: functional, cell-based; conditions: dose 0.5-5 µM
# [19] = system: COMI; experiment: Inhibition of mitochondrial translation in human COMI cells assessed as decrease in COX1 expression level at 0.5 to 5 uM incubated for 48 hrs in the presence of dalfopristin by immunoblotting analysis; format: functional, cell-based; conditions: dose 0.5-5 µM
# [20] = system: COMI; experiment: Inhibition of mitochondrial translation in human COMI cells assessed as decrease in COX2 expression level at 0.5 to 5 uM incubated for 48 hrs by immunoblotting analysis; format: functional, cell-based; conditions: dose 0.5-5 µM
# [21] = system: COMI; experiment: Growth inhibition of human COMI cells incubated for 48 hrs in the presence of dalfopristin by Hoechst 33342/PI staining based analysis; format: functional
# [22] = system: VIPI; experiment: Growth inhibition of human VIPI cells incubated for 48 hrs in the presence of dalfopristin by Hoechst 33342/PI staining based analysis; format: functional
# [23] = system: COMI; experiment: Growth inhibition of human COMI cells incubated for 48 hrs in the presence of quinupristin by Hoechst 33342/PI staining based analysis; format: functional
# [24] = system: COMI; experiment: Inhibition of mitochondrial translation in human COMI cells assessed as decrease in COX1 expression level at >25 uM incubated for 48 hrs by immunoblotting analysis; format: functional, cell-based
# [25] = system: COMI; experiment: Inhibition of mitochondrial translation in human COMI cells assessed as decrease in COX2 expression level at >25 uM incubated for 48 hrs by immunoblotting analysis; format: functional, cell-based
# [26] = system: COMI; experiment: Inhibition of mitochondrial translation in human COMI cells assessed as increase in COX4 expression level at >25 uM incubated for 48 hrs by immunoblotting analysis; format: functional, cell-based
# [27] = system: COMI; experiment: Inhibition of mitochondrial translation in human COMI cells assessed as decrease in ND3 expression level at >25 uM incubated for 48 hrs by immunoblotting analysis; format: functional, cell-based
# [28] = system: COMI; experiment: Inhibition of mitochondrial translation in human COMI cells assessed as decrease in ND3 expression level at 0.5 to 5 uM incubated for 48 hrs in the presence of quinupristin by immunoblotting analysis; format: functional, cell-based; conditions: dose 0.5-5 µM
# [29] = system: COMI; experiment: Inhibition of mitochondrial translation in human COMI cells assessed as decrease in COX1 expression level at 0.38 uM incubated for 24 hrs in the presence of emetine by [35S]-methionine labelling based SDS-PAGE analysis; format: functional, cell-based
# [30] = system: COMI; experiment: Inhibition of mitochondrial translation in human COMI cells assessed as decrease in ND3 expression level at 0.5 uM incubated for 24 hrs in the presence of quinupristin and emetine by [35S]-methionine labelling based SDS-PAGE analysis; format: functional, cell-based
# [31] = system: COMI; experiment: Inhibition of mitochondrial translation in human COMI cells assessed as increase in COX4 expression level at 0.5 to 5 uM incubated for 48 hrs in the presence of quinupristin by immunoblotting analysis; format: functional, cell-based; conditions: dose 0.5-5 µM
# [32] = system: COMI; experiment: Inhibition of mitochondrial translation in human COMI cells assessed as decrease in COX2 expression level at 0.5 uM incubated for 24 hrs in the presence of quinupristin and emetine by [35S]-methionine labelling based SDS-PAGE analysis; format: functional, cell-based
# [33] = system: COMI; experiment: Growth inhibition of human COMI cells in the presence of quinupristin; format: functional
# [34] = system: COMI; experiment: Inhibition of mitochondrial translation in human COMI cells assessed as decrease in COX1 expression level at 0.5 uM incubated for 24 hrs in the presence of quinupristin and emetine by [35S]-methionine labelling based SDS-PAGE analysis; format: functional, cell-based
# [35] = system: COMI; experiment: Inhibition of mitochondrial translation in human COMI cells assessed as decrease in COX2 expression level at 0.38 uM incubated for 24 hrs in the presence of emetine by [35S]-methionine labelling based SDS-PAGE analysis; format: functional, cell-based
# [36] = system: VIPI; experiment: Growth inhibition of human VIPI cells in the presence of quinupristin; format: functional
# [37] = Potency index, ratio of temozolomide GI50 to test compound GI50 for human VIPI cells in the presence of quinupristin; format: functional
# [38] = system: COMI; experiment: Inhibition of mitochondrial translation in human COMI cells assessed as decrease in ND3 expression level at 0.38 uM incubated for 24 hrs in the presence of emetine by [35S]-methionine labelling based SDS-PAGE analysis; format: functional, cell-based
# [39] = system: COMI; experiment: Inhibition of mitochondrial translation in human COMI cells assessed as decrease in COX1 expression level at 0.5 to 5 uM incubated for 48 hrs in the presence of quinupristin by immunoblotting analysis; format: functional, cell-based; conditions: dose 0.5-5 µM
# [40] = system: VIPI; experiment: Growth inhibition of human VIPI cells incubated for 48 hrs in the presence of quinupristin by Hoechst 33342/PI staining based analysis; format: functional
# [41] = system: COMI; experiment: Potency index, ratio of temozolomide GI50 to test compound GI50 for human COMI cells in the presence of quinupristin; format: functional
# [42] = system: COMI; experiment: Inhibition of mitochondrial translation in human COMI cells assessed as decrease in COX2 expression level at 0.5 to 5 uM incubated for 48 hrs in the presence of quinupristin by immunoblotting analysis; format: functional, cell-based; conditions: dose 0.5-5 µM
# [43] = system: COMI; experiment: Growth inhibition of human COMI cells; format: functional
# [44] = system: VIPI; experiment: Growth inhibition of human VIPI cells; format: functional
smiles,measurement,setting,value
CC[C@H]1NC(=O)[C@@H](NC(=O)c2ncccc2O)[C@@H](C)OC(=O)[C@H](c2ccccc2)NC(=O)[C@@H]2CC(=O)[C@H](CS[C@@H]3CN4CCC3CC4)CN2C(=O)[C@H](Cc2ccc(N(C)C)cc2)N(C)C(=O)[C@@H]2CCCN2C1=O [QUINUPRISTIN] ({Picolinoyl(3-OH)}-T[dAbu]P[NMePhe(4-NMe2)][X1][Phg]; ester 1-C),RatioGI50,[1],15
same,GI50,[2],21.4 µM
same,inhibition,[3],inactive
same,inhibition,[4],Active
same,RatioGI50,[5],15
same,GI50,[6],3 µM
same,GI50,[7],6.5 µM
same,inhibition,[8],Active
same,inhibition,[9],inactive
same,inhibition,[10],inactive
same,inhibition,[11],Active
same,inhibition,[12],inactive
same,inhibition,[13],Active
same,inhibition,[14],Active
same,GI50,[15],20.2 µM
same,inhibition,[16],inactive
same,inhibition,[17],Active
same,inhibition,[18],inactive
same,inhibition,[19],Active
same,inhibition,[20],inactive
same,GI50,[21],6.5 µM
same,GI50,[22],20.2 µM
CCN(CC)CCOC1CCN2C(=O)c3coc(n3)C[C@H](O)C[C@H](O)/C=C(C)/C=C/CNC(=O)/C=C/[C@@H](C)[C@@H](C(C)C)OC(=O)C12 (stereo not given in full),GI50,[6],85.3 µM
same,GI50,[23],14 µM
same,inhibition,[24],Active
same,inhibition,[25],Active
same,inhibition,[26],Active
same,inhibition,[27],Active
CCN(CC)CCS(=O)(=O)[C@@H]1CCN2C(=O)c3coc(n3)CC(=O)C[C@H](O)/C=C(C)/C=C/CNC(=O)/C=C/[C@@H](C)[C@@H](C(C)C)OC(=O)[C@@H]12 [DALFOPRISTIN],GI50,[2],16.2 µM
same,inhibition,[28],Active
same,GI50,[6],8.6 µM
same,inhibition,[29],Active
same,inhibition,[9],Active
same,inhibition,[30],Active
same,inhibition,[10],Active
same,inhibition,[31],Active
same,inhibition,[32],Active
same,GI50,[33],6.5 µM
same,inhibition,[34],Active
same,GI50,[23],6.5 µM
same,inhibition,[35],Active
same,GI50,[36],20.2 µM
same,inhibition,[18],Active
same,RatioGI50,[37],15
same,inhibition,[38],Active
same,inhibition,[20],Active
same,inhibition,[39],Active
same,GI50,[40],20.2 µM
same,RatioGI50,[41],15
same,inhibition,[42],Active
CCN(CC)CCNC1CCN2C(=O)c3coc(n3)C[C@H](O)C[C@H](O)/C=C(C)/C=C/CNC(=O)/C=C/[C@@H](C)[C@@H](C(C)C)OC(=O)C12 (stereo not given in full),GI50,[6],> 100 µM
same,GI50,[23],16.9 µM
same,inhibition,[24],Active
same,inhibition,[25],Active
same,inhibition,[26],Active
same,inhibition,[27],Active
Cn1nnc2c(C(N)=O)ncn2c1=O [TEMOZOLOMIDE],GI50,[43],96.5 µM
same,GI50,[44],338 µM
CC1=C\[C@@H](O)C[C@@H](F)Cc2nc(co2)C(=O)N2CCC[C@@H]2C(=O)O[C@H](C(C)C)[C@H](C)/C=C/C(=O)NC\C=C\1,GI50,[6],7.37 µM
same,inhibition,[9],Active
same,inhibition,[10],Active
same,GI50,[23],5.83 µM
same,inhibition,[18],Active
same,inhibition,[20],Active
CCN(CC)CCS(=O)(=O)[C@@H]1CCN2C(=O)c3coc(n3)C[C@@H](NC)C[C@H](O)/C=C(C)/C=C/CNC(=O)/C=C/[C@@H](C)[C@@H](C(C)C)OC(=O)[C@@H]12,GI50,[6],1.56 µM
same,inhibition,[9],inactive
same,inhibition,[10],inactive
same,GI50,[23],1.32 µM
same,inhibition,[18],inactive
same,inhibition,[20],inactive
